Experiments:
[1] = biological target: T1, Bromodomain-containing protein 4 (Homo sapiens, UniProt O60885); experiment: Binding affinity to His-6 tagged BRD4 BD1 bromodomain (unknown origin) incubated for 10 mins by TR-FRET assay
[2] = biological target: T1, Bromodomain-containing protein 4; experiment: Binding affinity to His-6 tagged BRD4 BD2 bromodomain (unknown origin) incubated for 10 mins by TR-FRET assay

IC50 [1]: 3.3 nM
IC50 [2]: 3.7 nM
Compound: COC(=O)c1cc2c(cc1CS(C)(=O)=O)-c1cn(C)c(=O)c3[nH]cc(c13)CN2c1ncc(C#CCN)cc1F
